Laboratory results reported in PubChem BioAssay AID1963853 (Molecular Pharmacology Branch, DTP, NCI, 2024).

Test system: 266295-075-R-J1-PDC spheroid viability
Experiment: Anticancer human tumor 266295-075-R-J1-PDC patient-derived head and neck squamous carcinoma cell line growth inhibition [POLQ]
Conditions: spheroids with HUVEC and MSC; for IC50: curve of first compound; for viability, T/C: stronger effect = lower value
Summary of the method: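 Complex spheroid viability model combining PDC tumour cells with endothelial (HUVEC) and MSC stromal cells. Novobiocin, ART-558 or RP6685 were tested singly and in combination with standard and investigational anticancer drugs. Each was titrated in half-log steps from near clinical Cmax, or from 10 microM where Cmax was unknown.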

[1] = second compound 0.0316 µM, first compound 0.0316 µM
[2] = second compound 0.0316 µM, first compound 0.1 µM
[3] = second compound 0.0316 µM, first compound 0.316 µM
[4] = second compound 0.0316 µM, first compound 1 µM
[5] = second compound 0.1 µM, first compound 0.0316 µM
[6] = second compound 0.1 µM, first compound 0.1 µM
[7] = second compound 0.1 µM, first compound 0.316 µM
[8] = second compound 0.1 µM, first compound 1 µM
[9] = second compound 0.316 µM, first compound 0.0316 µM
[10] = second compound 0.316 µM, first compound 0.1 µM
[11] = second compound 0.316 µM, first compound 0.316 µM
[12] = second compound 0.316 µM, first compound 1 µM
[13] = second compound 1 µM, first compound 0.0316 µM
[14] = second compound 1 µM, first compound 0.1 µM
[15] = second compound 1 µM, first compound 0.316 µM
[16] = second compound 1 µM, first compound 1 µM
[17] = second compound 3.16 µM, first compound 0.0316 µM
[18] = second compound 3.16 µM, first compound 0.1 µM
[19] = second compound 3.16 µM, first compound 0.316 µM
[20] = second compound 3.16 µM, first compound 1 µM
[21] = second compound 10 µM, first compound 0.0316 µM
[22] = second compound 10 µM, first compound 0.1 µM
[23] = second compound 10 µM, first compound 0.316 µM
[24] = second compound 10 µM, first compound 1 µM
[25] = second compound 0.0316 µM, first compound 3.16 µM
[26] = second compound 0.0316 µM, first compound 10 µM
[27] = second compound 0.1 µM, first compound 3.16 µM
[28] = second compound 0.1 µM, first compound 10 µM
[29] = second compound 0.316 µM, first compound 3.16 µM
[30] = second compound 0.316 µM, first compound 10 µM
[31] = second compound 1 µM, first compound 3.16 µM
[32] = second compound 1 µM, first compound 10 µM
[33] = second compound 3.16 µM, first compound 3.16 µM
[34] = second compound 3.16 µM, first compound 10 µM
[35] = second compound 10 µM, first compound 3.16 µM
[36] = second compound 10 µM, first compound 10 µM
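Note: spheroids exposed to compounds for seven days before readout.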

CCc1c2c(nc3ccc(O)cc13)-c1cc3c(c(=O)n1C2)COC(=O)[C@]3(O)CC + COC1C(OC(N)=O)C(O)C(Oc2ccc3c(O)c(NC(=O)c4ccc(O)c(CC=C(C)C)c4)c(=O)oc3c2C)OC1(C)C
IC50 (second compound 0.0316 µM): > 1 µM
IC50 (second compound 0.1 µM): > 1 µM
IC50 (second compound 0.316 µM): > 1 µM
IC50 (second compound 1 µM): > 1 µM
IC50 (second compound 3.16 µM): > 1 µM
IC50 (second compound 10 µM): > 1 µM
viability, T/C (second compound 0.0316 µM, first compound 0.00316 µM): 91%
viability, T/C (second compound 0.0316 µM, first compound 0.01 µM): 109%
viability, T/C [1]: 89.8%
viability, T/C [2]: 105%
viability, T/C [3]: 96.7%
viability, T/C [4]: 70.2%
viability, T/C (second compound 0.1 µM, first compound 0.00316 µM): 90.1%
viability, T/C (second compound 0.1 µM, first compound 0.01 µM): 99.2%
viability, T/C [5]: 86.6%
viability, T/C [6]: 103%
viability, T/C [7]: 108%
viability, T/C [8]: 79.3%
viability, T/C (second compound 0.316 µM, first compound 0.00316 µM): 99.7%
viability, T/C (second compound 0.316 µM, first compound 0.01 µM): 82.9%
viability, T/C [9]: 85.6%
viability, T/C [10]: 109%
viability, T/C [11]: 100%
viability, T/C [12]: 69.7%
viability, T/C (second compound 1 µM, first compound 0.00316 µM): 93.5%
viability, T/C (second compound 1 µM, first compound 0.01 µM): 79.2%
viability, T/C [13]: 91.1%
viability, T/C [14]: 94.5%
viability, T/C [15]: 99.5%
viability, T/C [16]: 69.9%
viability, T/C (second compound 3.16 µM, first compound 0.00316 µM): 84.4%
viability, T/C (second compound 3.16 µM, first compound 0.01 µM): 90.6%
viability, T/C [17]: 97.9%
viability, T/C [18]: 104%
viability, T/C [19]: 96.8%
viability, T/C [20]: 65.5%
viability, T/C (second compound 10 µM, first compound 0.00316 µM): 89.5%
viability, T/C (second compound 10 µM, first compound 0.01 µM): 89%
viability, T/C [21]: 107%
viability, T/C [22]: 112%
viability, T/C [23]: 106%
viability, T/C [24]: 55.4%

COc1cc(C2c3cc4c(cc3C(OC3OC5COC(C)OC5C(O)C3O)C3COC(=O)C23)OCO4)cc(OC)c1O (stereo not drawn) + COC1C(OC(N)=O)C(O)C(Oc2ccc3c(O)c(NC(=O)c4ccc(O)c(CC=C(C)C)c4)c(=O)oc3c2C)OC1(C)C
IC50 (second compound 0.0316 µM): > 10 µM
IC50 (second compound 0.1 µM): > 10 µM
IC50 (second compound 0.316 µM): > 10 µM
IC50 (second compound 1 µM): > 10 µM
IC50 (second compound 3.16 µM): > 10 µM
IC50 (second compound 10 µM): > 10 µM
viability, T/C [1]: 81.4%
viability, T/C [2]: 118%
viability, T/C [3]: 93.5%
viability, T/C [4]: 89.6%
viability, T/C [25]: 89.1%
viability, T/C [26]: 76.9%
viability, T/C [5]: 88.7%
viability, T/C [6]: 105%
viability, T/C [7]: 110%
viability, T/C [8]: 83.2%
viability, T/C [27]: 85.1%
viability, T/C [28]: 77.4%
viability, T/C [9]: 90.1%
viability, T/C [10]: 98.5%
viability, T/C [11]: 89.8%
viability, T/C [12]: 87%
viability, T/C [29]: 83.3%
viability, T/C [30]: 82%
viability, T/C [13]: 101%
viability, T/C [14]: 92.1%
viability, T/C [15]: 86.3%
viability, T/C [16]: 96.9%
viability, T/C [31]: 91.1%
viability, T/C [32]: 72.2%
viability, T/C [17]: 102%
viability, T/C [18]: 91.2%
viability, T/C [19]: 114%
viability, T/C [20]: 94.7%
viability, T/C [33]: 99%
viability, T/C [34]: 83%
viability, T/C [21]: 116%
viability, T/C [22]: 116%
viability, T/C [23]: 120%
viability, T/C [24]: 92.4%
viability, T/C [35]: 110%
viability, T/C [36]: 80.5%

Nc1ccn(C2OC(CO)C(O)C2(F)F)c(=O)n1 (stereo not drawn) + COC1C(OC(N)=O)C(O)C(Oc2ccc3c(O)c(NC(=O)c4ccc(O)c(CC=C(C)C)c4)c(=O)oc3c2C)OC1(C)C
IC50 (second compound 0.0316 µM): > 10 µM
IC50 (second compound 0.1 µM): > 10 µM
IC50 (second compound 0.316 µM): > 10 µM
IC50 (second compound 1 µM): > 10 µM
IC50 (second compound 3.16 µM): > 10 µM
IC50 (second compound 10 µM): > 10 µM
viability, T/C [1]: 109%
viability, T/C [2]: 82%
viability, T/C [3]: 77.3%
viability, T/C [4]: 101%
viability, T/C [25]: 81.3%
viability, T/C [26]: 77.9%
viability, T/C [5]: 107%
viability, T/C [6]: 91.9%
viability, T/C [7]: 82.6%
viability, T/C [8]: 84%
viability, T/C [27]: 91.1%
viability, T/C [28]: 75.2%
viability, T/C [9]: 100%
viability, T/C [10]: 85.9%
viability, T/C [11]: 90.8%
viability, T/C [12]: 82.4%
viability, T/C [29]: 78.7%
viability, T/C [30]: 77.1%
viability, T/C [13]: 104%
viability, T/C [14]: 78.1%
viability, T/C [15]: 87%
viability, T/C [16]: 84.5%
viability, T/C [31]: 93.6%
viability, T/C [32]: 87.4%
viability, T/C [17]: 105%
viability, T/C [18]: 102%
viability, T/C [19]: 89.6%
viability, T/C [20]: 81.8%
viability, T/C [33]: 85.3%
viability, T/C [34]: 83.2%
viability, T/C [21]: 109%
viability, T/C [22]: 87.2%
viability, T/C [23]: 84.6%
viability, T/C [24]: 97.6%
viability, T/C [35]: 82.3%
viability, T/C [36]: 84.9%

O=c1[nH]cc(F)c(=O)[nH]1 + COC1C(OC(N)=O)C(O)C(Oc2ccc3c(O)c(NC(=O)c4ccc(O)c(CC=C(C)C)c4)c(=O)oc3c2C)OC1(C)C
IC50 (second compound 0.0316 µM): > 10 µM
IC50 (second compound 0.1 µM): > 10 µM
IC50 (second compound 0.316 µM): > 10 µM
IC50 (second compound 1 µM): > 10 µM
IC50 (second compound 3.16 µM): > 10 µM
IC50 (second compound 10 µM): > 10 µM
viability, T/C [1]: 103%
viability, T/C [2]: 86.2%
viability, T/C [3]: 93.1%
viability, T/C [4]: 107%
viability, T/C [25]: 96.1%
viability, T/C [26]: 100%
viability, T/C [5]: 106%
viability, T/C [6]: 110%
viability, T/C [7]: 86.8%
viability, T/C [8]: 93.6%
viability, T/C [27]: 89%
viability, T/C [28]: 103%
viability, T/C [9]: 103%
viability, T/C [10]: 106%
viability, T/C [11]: 97.3%
viability, T/C [12]: 97.3%
viability, T/C [29]: 91.7%
viability, T/C [30]: 89%
viability, T/C [13]: 94.2%
viability, T/C [14]: 122%
viability, T/C [15]: 93.2%
viability, T/C [16]: 111%
viability, T/C [31]: 90.6%
viability, T/C [32]: 89.9%
viability, T/C [17]: 112%
viability, T/C [18]: 93.5%
viability, T/C [19]: 108%
viability, T/C [20]: 97.8%
viability, T/C [33]: 105%
viability, T/C [34]: 90.5%
viability, T/C [21]: 102%
viability, T/C [22]: 103%
viability, T/C [23]: 96.2%
viability, T/C [24]: 103%
viability, T/C [35]: 98.7%
viability, T/C [36]: 78.9%
